Patent US11691984B2, “Compounds and methods for DCAF-mediated protein degradation” (The Scripps Research Institute, priority 2018, dated 2023)

Columns and labels:
[1] = biological target: T1, HA-DCAF16 and FLAG-FKBP12_NLS (Homo sapiens, UniProt P62942+Q9NXF7); test: Co-immunoprecipitation of HA-DCAF16 with FLAG-FKBP12_NLS (ternary complex) in HEK293T cells; format: cell-based; details: 5 μM, MG132 10 μM, 2 hours
T1 construct: expressed in transfected cells; host or cells: HEK293T stably expressing FLAG-FKBP12_NLS, transiently transfected with HA-DCAF16 (pRK5)
T1 sequence (Q9NXF7 whole entry): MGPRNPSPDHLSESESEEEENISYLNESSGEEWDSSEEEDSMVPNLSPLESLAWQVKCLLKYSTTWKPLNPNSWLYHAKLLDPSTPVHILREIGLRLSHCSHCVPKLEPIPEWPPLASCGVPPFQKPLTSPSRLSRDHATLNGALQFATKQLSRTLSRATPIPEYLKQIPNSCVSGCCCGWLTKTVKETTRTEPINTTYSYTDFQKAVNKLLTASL
T1 sequence (P62942 2-108): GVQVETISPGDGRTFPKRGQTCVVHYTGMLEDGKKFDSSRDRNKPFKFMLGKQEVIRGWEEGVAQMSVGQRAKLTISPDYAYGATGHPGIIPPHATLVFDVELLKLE
T1 sequence (Q16531 whole entry partner): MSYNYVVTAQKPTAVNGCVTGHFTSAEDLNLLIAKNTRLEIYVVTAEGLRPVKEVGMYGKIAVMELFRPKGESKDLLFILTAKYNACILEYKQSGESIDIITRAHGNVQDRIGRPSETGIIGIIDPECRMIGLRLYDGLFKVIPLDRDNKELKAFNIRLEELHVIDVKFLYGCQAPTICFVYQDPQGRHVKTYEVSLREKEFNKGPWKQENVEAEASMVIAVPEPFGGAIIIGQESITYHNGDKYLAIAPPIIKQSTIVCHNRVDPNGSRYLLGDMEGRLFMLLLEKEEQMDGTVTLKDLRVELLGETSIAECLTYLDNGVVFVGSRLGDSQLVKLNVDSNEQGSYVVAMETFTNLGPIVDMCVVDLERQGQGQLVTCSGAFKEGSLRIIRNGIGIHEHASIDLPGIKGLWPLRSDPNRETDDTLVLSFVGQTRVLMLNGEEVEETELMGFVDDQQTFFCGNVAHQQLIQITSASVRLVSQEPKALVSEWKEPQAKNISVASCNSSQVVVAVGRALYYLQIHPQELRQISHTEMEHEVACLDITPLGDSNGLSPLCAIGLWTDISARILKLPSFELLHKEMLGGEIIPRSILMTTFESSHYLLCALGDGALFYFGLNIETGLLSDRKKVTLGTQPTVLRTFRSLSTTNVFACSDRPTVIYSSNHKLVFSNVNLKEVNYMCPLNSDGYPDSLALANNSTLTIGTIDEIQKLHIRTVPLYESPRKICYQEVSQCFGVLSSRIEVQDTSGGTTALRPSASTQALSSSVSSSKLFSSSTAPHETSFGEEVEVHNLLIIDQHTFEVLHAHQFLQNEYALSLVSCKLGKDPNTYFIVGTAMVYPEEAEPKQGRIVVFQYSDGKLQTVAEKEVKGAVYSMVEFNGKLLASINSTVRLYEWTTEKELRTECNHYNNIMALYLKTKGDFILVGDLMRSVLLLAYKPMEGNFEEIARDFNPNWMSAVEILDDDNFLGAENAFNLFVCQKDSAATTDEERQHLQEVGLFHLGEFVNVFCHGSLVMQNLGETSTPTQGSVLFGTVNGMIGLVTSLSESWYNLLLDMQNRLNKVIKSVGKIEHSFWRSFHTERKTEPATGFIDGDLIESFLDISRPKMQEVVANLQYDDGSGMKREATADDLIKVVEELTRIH
Description: (§1) Cells were collected and lysed in 1% NP-40 lysis buffer (25 mM Tris-HCl pH 7.4, 150 mM NaCl, 10% glycerol, 1% Nonidet P-40) with complete protease inhibitor cocktail (Roche). Cells were vortexed and sonicated for 5 pulses (40%, 4). The supernatant was collected after centrifugation at 16,000 g for 10 min at 4° C. Protein concentration was determined by DC assay (Bio-Rad). Protein lysate was heated at 95° C. for 5 min in 1× Laemmli sample buffer. Proteins were resolved by 12% or 14% Novex Tris-Glycine Mini Gels (Invitrogen) and transferred to polyvinylidene fluoride (PVDF) membrane (0.2 Bio-Rad). The membrane was blocked with 5% BSA in TBST buffer (0.1% Tween 20, 20 mM Tris-HCl 7.6, 150 mM NaCl) at room temperature for 1 h. The antibody was diluted with fresh 5% BSA in TBST buffer (1:10000 dilution for FLAG, HA and β-Actin, 1:1000 dilution for others) and incubated with membrane (1 h room temperature for FLAG, HA and β-Actin, overnight 4° C. for others). Membrane was washed three times with TBST buffer and incubated with secondary antibody (1:5000 dilution in 5% BSA in TBST) at room temperature for 1 h. Membrane was washed three times with TBST buffer. The chemiluminescence signal in membrane was recorded after developing in ECL or ECL plus western blotting detection reagent using CL-XPosure film (Thermo Scientific). Relative band intensities were quantified using ImageJ.
Cells were collected and lysed in 1% NP-40 lysis buffer with complete protease inhibitor cocktail on ice for 10 min, followed by 5 pulses of sonication (40%, 4). After centrifugation at 16,000 g for 10 min at 4° C., the supernatant was collected. FLAG affinity gel (20 μL slurry per sample) was incubated with protein lysates at 4° C. for 1 h and washed four times with IP washing buffer. The affinity gel was heated at 95° C. for 10 min in 2× Laemmli sample buffer, followed by western blot analysis.

[2] = biological target: T2, DCAF16 (Homo sapiens, UniProt Q9NXF7); test: LC-MS/MS detection of KB02-PEG0-SLF-modified tryptic peptides on DCAF16; format: binding; details: HA-DCAF16-transfected HEK293T, 10 μM, 2 h
T2 construct: endogenously expressed DCAF16 in HEK293T cells; endogenous in cells; host or cells: HEK293T
T2 sequence (Q9NXF7 whole entry): as the sequence (Q9NXF7 whole entry) above
Description: HEK293T cells were transfected with HA-DCAF16 plasmid by PEI transfection reagent for 24 h and treated with DMSO or 10 μM KB02-PEG0-SLF for 2 h. Cells were collected and lysed in 1% NP-40 lysis buffer with complete protease inhibitor cocktail. HA immunoprecipitation was performed with 10 mg of total protein lysates to purify HA-DCAF16. After washing the HA resin three times with IP washing buffer and once with PBS, HA-DCAF16 protein was eluted by heating at 65° C. for 10 min with 8M urea in PBS, then reduced with 12.5 mM DTT at 65° C. for 15 min and alkylated with 25 mM iodoacetamide at 37° C. for 30 min. The protein solution was diluted with PBS to 2M urea and digested with 2 μg trypsin at 37° C. for 6 h. Tryptic peptides were acidified with 5% formic acid and loaded onto a silica capillary column (250 μm) packed with 3 cm of C18 resin (Aqua 5 Phenomenex). Peptides were analyzed on LTQ-Orbitrap Elite mass spectrometer (Thermo Scientific) coupled with a Thermo UltiMate 3000 UHPLC system. Peptides were separated on a capillary column packed with 10 cm of C18 resin (Aqua 5 Phenomenex) and a 5 μm tip. The flow rate was 0.5 μL/min. […]

[3] = biological target: FLAG-FKBP12_NLS (Homo sapiens, UniProt P62942); test: Western blot of stably expressed FLAG-FKBP12_NLS in MDA-MB-231 cells; format: cell-based; design: expressed in transfected cells; host or cells: HEK293T, MDA-MB-231 and HEK293 DCAF16+/+ and DCAF16-/- clones (lentiviral pCDH-CMV-MCS-EF1-Puro); details: 1 μM, 8 hours
Chain of FLAG-FKBP12_NLS (P62942 whole entry): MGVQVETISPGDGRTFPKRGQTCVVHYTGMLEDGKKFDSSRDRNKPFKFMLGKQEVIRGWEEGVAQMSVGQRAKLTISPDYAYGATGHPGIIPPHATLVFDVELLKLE
Description: FLAG-FKBP12 or FLAG-FKBP12_NLS lentivirus was generated by co-transfection of FLAG-FKBP12 or FLAG-FKBP12_NLS, pCMV-dR8.2 and pMD2.G into HEK 293T cells using FuGene 6 transfection reagent (Promega). Virus-containing medium were collected 48 h after transfection, filtered with […] filter, and used to transduce HEK293T and MDA-MB-231 cells in the presence of 10 μg/mL polybrene (Santa Cruz). 72 h after transduction, puromycin (2 μg/mL) was added to cells. HEK293T cells stably expressing FLAG-FKBP12 or FLAG-FKBP12_NLS were obtained after puromycin selection for 7 days. HEK293T cells stably expressing pCDH empty vector were generated in parallel as control.
as §1

## CCC(C)(C)C(=O)C(=O)N1CCCC[C@H]1C(=O)O[C@H](CCc1ccc(OC)c(OC)c1)c1cccc(NC(=O)COc2ccc3c(c2)CCCN3C(=O)CCl)c1 [KB02-PEG0-SLF, (R)-1-(3-(2-((1-(2-chloroacetyl)-1,2,3,4-tetrahydroquinolin-6-yl)oxy)acetamido)phenyl)-3-(3,4-dimethoxyphenyl)propyl (5)-1-(3,3-dimethyl-2-oxopentanoyl)piperidine-2-carboxylate]
[1]
  co-immunoprecipitation of HA-DCAF16 with FLAG-FKBP12_NLS: co-immunoprecipitated with HA-DCAF16
[2]
  modified DCAF16 tryptic peptide identified: tryptic peptide (aa 168-184) containing C173 and C177-179
[3]
  degradation of FLAG-FKBP12_NLS in MDA-MB-231 cells: degradation of stably expressed FLAG-FKBP12_NLS
